Assay results from the supplement of paper PMC5908809.

Tests used:
[1] = system: normal NK cells expanded with K562-aAPC; test: percent inhibition of viability; higher = more inhibition; settings: 72 h, IL-2 2.5 ng/mL
Procedure: (§1)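 Drug sensitivity and resistance testing on K562-aAPC-expanded normal NK cells: 5 concentrations (10-fold steps over a 10,000-fold range), 72 h at 37 °C, viability by CellTiter-Glo normalised to DMSO and benzethonium chloride controls; DSS from the fitted curve.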

[2] = system: DERL-7 (IL-2 2.5 ng/mL); test: as above; settings: 72 h
[3] = system: IMC-1 (IL-2 20 ng/mL); test: as above; settings: 72 h
[4] = system: KAI3 (IL-2 2.5 ng/mL); test: as above; settings: 72 h
[5] = system: KHYG-1 (IL-2 2.5 ng/mL); test: as above; settings: 72 h
[6] = system: NK-92 (IL-2 2.5 ng/mL); test: as above; settings: 72 h
[7] = system: NK-YS (IL-2 2.5 ng/mL); test: as above; settings: 72 h
[8] = system: NKL (IL-2 2.5 ng/mL); test: as above; settings: 72 h
[9] = system: SNK-6 (IL-2 2.5 ng/mL); test: as above; settings: 72 h
[10] = system: YT (IL-2 2.5 ng/mL); test: as above; settings: 72 h
[11] = system: normal primary NK cells, pool 1 (3 donors) (IL-2 2.5 ng/mL); test: as above; settings: 72 h
[12] = system: normal primary NK cells, pool 1 (3 donors), resting (IL-2 0 ng/mL); test: as above; settings: 72 h
[13] = system: normal primary NK cells, pool 2 (3 donors) (IL-2 2.5 ng/mL); test: as above; settings: 72 h
[14] = system: normal primary NK cells, pool 3 (3 donors) (IL-2 2.5 ng/mL); test: as above; settings: 72 h
[15] = system: normal NK cells expanded with K562-aAPC; test: drug sensitivity score (DSS) (DSS units); higher = more sensitive; extreme values may be limits of the assay; settings: 72 h; IL-2 2.5 ng/mL
Procedure: as §1

[16] = system: DERL-7 (IL-2 2.5 ng/mL); test: as above; settings: 72 h
[17] = system: IMC-1 (IL-2 20 ng/mL); test: as above; settings: 72 h
[18] = system: KAI3 (IL-2 2.5 ng/mL); test: as above; settings: 72 h
[19] = system: KHYG-1 (IL-2 2.5 ng/mL); test: as above; settings: 72 h
[20] = system: NK-92 (IL-2 2.5 ng/mL); test: as above; settings: 72 h
[21] = system: NK-YS (IL-2 2.5 ng/mL); test: as above; settings: 72 h
[22] = system: NKL (IL-2 2.5 ng/mL); test: as above; settings: 72 h
[23] = system: SNK-6 (IL-2 2.5 ng/mL); test: as above; settings: 72 h
[24] = system: YT (IL-2 2.5 ng/mL); test: as above; settings: 72 h
[25] = system: normal primary NK cells, pool 1 (3 donors) (IL-2 2.5 ng/mL); test: as above; settings: 72 h
[26] = system: normal primary NK cells, pool 1 (3 donors), resting (IL-2 0 ng/mL); test: as above; settings: 72 h
[27] = system: normal primary NK cells, pool 2 (3 donors) (IL-2 2.5 ng/mL); test: as above; settings: 72 h
[28] = system: normal primary NK cells, pool 3 (3 donors) (IL-2 2.5 ng/mL); test: as above; settings: 72 h

Cn1c(=O)n(-c2ccc(C(C)(C)C#N)cc2)c2c3cc(-c4cnc5ccccc5c4)ccc3ncc21 [Dactolisib] (max concentration tested 1000 nM)
percent inhibition of viability [%]
Settings | 0.1 nM | 1 nM | 10 nM | 100 nM | 1000 nM
[1] | -4.3 | -1.75 | 17.1 | 38.2 | 57.6
[2] | 0.52 | 16 | 38.7 | 79.4 | 84.9
[3] | -8.09 | 0.4 | -15.1 | 8.63 | 56.9
[4] | -4.23 | -6.61 | 24.4 | 68.8 | 75.8
[5] | -4.3 | -5.69 | 3.3 | 74.9 | 90.8
[6] | -5.17 | -0.09 | 27.1 | 63.9 | 70.8
[7] | 0.2 | -0.12 | 24.7 | 63.3 | 82.3
[8] | -13.1 | -9.35 | 36.5 | 69.7 | 76.1
[9] | -7.98 | -26.8 | 2.13 | 46.8 | 52.4
[10] | -3.01 | -5.11 | 15.7 | 57.6 | 80.4
[11] | -5.56 | 16 | 21.4 | 45 | 38.5
[12] | -1.73 | 24 | 24.7 | 38.7 | 40.6
[13] | -5.46 | 9.09 | 17.1 | 37.6 | 57.4
[14] | -3.41 | 6.19 | 15.4 | 16.5 | 43.5

Settings | drug sensitivity score
[15] | 8.96
[16] | 19.6
[17] | 4.51
[18] | 15.9
[19] | 14.2
[20] | 15.2
[21] | 14.8
[22] | 18.6
[23] | 8.78
[24] | 12.7
[25] | 10.6
[26] | 11.8
[27] | 9.12
[28] | 4.8

CS(=O)(=O)N1CCN(Cc2cc3nc(-c4cccc5[nH]ncc45)nc(N4CCOCC4)c3s2)CC1 [Pictilisib] (max concentration tested 10000 nM)
percent inhibition of viability [%]
Settings | 1 nM | 10 nM | 100 nM | 1000 nM | 10000 nM
[1] | 2.02 | 0.78 | 10.8 | 25.4 | 51.1
[2] | 0.8 | 4.11 | 16.1 | 57.5 | 87.1
[3] | -6.08 | -5.88 | -14.1 | -27.2 | -37
[4] | -6.58 | 2.21 | 8.79 | 17.4 | 52.6
[5] | -3.48 | -3.66 | -5.51 | 9.17 | 62.5
[6] | 4.34 | 0.31 | 30.3 | 36.6 | 73.9
[7] | 0.04 | 3.57 | 4.67 | 27.4 | 64.3
[8] | -16 | -14.4 | -0.35 | 45.4 | 73.1
[9] | 9.42 | 16.7 | -3.54 | 3.83 | 42
[10] | -3.11 | -1.03 | 5.07 | 24.7 | 62
[11] | -12 | -5.63 | 1.66 | 32.2 | 72.9
[12] | -0.3 | -14.8 | 0.53 | 45.2 | 63.4
[13] | -12.1 | 3.86 | 0.41 | 8.6 | 55.1
[14] | -9.78 | -13.3 | -0.72 | 3.18 | 37.3

Settings | drug sensitivity score
[15] | 5.88
[16] | 12.9
[17] | 0
[18] | 4.66
[19] | 4.95
[20] | 11
[21] | 6.66
[22] | 9.46
[23] | 2.73
[24] | 6.22
[25] | 8.06
[26] | 8.8
[27] | 4.41
[28] | 2.3

CO[C@@H](C(=O)N1Cc2[nH]nc(NC(=O)c3ccc(N4CCN(C)CC4)cc3)c2C1)c1ccccc1 [Danusertib] (max concentration tested 10000 nM)
percent inhibition of viability [%]
Settings | 1 nM | 10 nM | 100 nM | 1000 nM | 10000 nM
[1] | 0.09 | -2.41 | -1.99 | 45 | 66.8
[2] | 4.21 | 7.76 | 28.8 | 56.9 | 73.3
[3] | -7.01 | -4.49 | 6.37 | 93.6 | 99.5
[4] | -6.41 | -1.03 | 23.9 | 37.9 | 69.3
[5] | -6.8 | -6.2 | 5.51 | 66.7 | 86.5
[6] | 4 | 8.37 | 15.1 | 45.9 | 64.6
[7] | -2.39 | -4.33 | 9.93 | 70.3 | 61.7
[8] | -10.8 | -14.4 | -11 | 20.2 | 64.9
[9] | -10.1 | -21.1 | -2.34 | 66.7 | 72.5
[10] | -0.26 | -0.92 | 21.1 | 27.8 | 44.9
[11] | -7.78 | 14.4 | 8.28 | 17.6 | 41.4
[12] | 2.29 | 22.1 | 18.6 | 2.51 | -6.72
[13] | -7.19 | 11.2 | 11.8 | 13.2 | 39.9
[14] | -3.44 | 7.87 | 4.81 | 5.78 | 23.5

Settings | drug sensitivity score
[15] | 8.98
[16] | 14.3
[17] | 17.9
[18] | 10
[19] | 13.2
[20] | 10.4
[21] | 14.6
[22] | 6.51
[23] | 12.2
[24] | 7.27
[25] | 4.29
[26] | 0
[27] | 3.85
[28] | 1.46

Cc1c(N)nc([C@H](CC(N)=O)NC[C@H](N)C(N)=O)nc1C(=O)N[C@H](C(=O)N[C@H](C)[C@@H](O)[C@H](C)C(=O)N[C@H](C(=O)NCCc1nc(-c2nc(C(=O)NCCC[S+](C)C)cs2)cs1)[C@@H](C)O)[C@@H](OC1OC(CO)C(O)C(O)C1OC1OC(CO)C(O)C(OC(N)=O)C1O)c1cnc[nH]1 (stereo partly specified) [Bleomycin] (max concentration tested 10000 nM)
percent inhibition of viability [%]
Settings | 1 nM | 10 nM | 100 nM | 1000 nM | 10000 nM
[1] | 3.15 | -1.5 | 7.63 | 34.1 | 62.5
[2] | 0.04 | -2.28 | 1.21 | 29.5 | 78.2
[3] | -0.57 | -6.19 | 5.49 | 17.2 | 56.8
[4] | -4.06 | -8.69 | 8.99 | 52.9 | 77
[5] | -3.86 | -5.7 | -1.32 | 7.38 | 67.6
[6] | -18 | -20.7 | 13.2 | 60.3 | 99
[7] | -1.93 | -5.64 | 6.84 | 52.8 | 81.4
[8] | -14.6 | -9.35 | -1.37 | 39.7 | 96.6
[9] | 9.29 | 19.8 | 68.8 | 97 | 101
[10] | -2.74 | -1.16 | 1.84 | 13.3 | 51.6
[11] | -8.98 | 2.35 | -2.19 | 6.69 | 52.9
[12] | -6.18 | -0.23 | -9.89 | -6.49 | 82
[13] | -11.5 | -5.49 | -1.39 | 19.4 | 73.8
[14] | -10.1 | -1.71 | 12.2 | 27.9 | 68.2

Settings | drug sensitivity score
[15] | 7.53
[16] | 8.38
[17] | 5.31
[18] | 11.2
[19] | 4.93
[20] | 13.2
[21] | 11.1
[22] | 10.6
[23] | 27.6
[24] | 4.81
[25] | 3.94
[26] | 4.07
[27] | 7.05
[28] | 6.94
